Assay results as given in patent publication US11358957B2, “Microbiocidal oxadiazole derivatives” (SYNGENTA PARTICIPATIONS AG, priority 2017, dated 2022).

What was measured:
[1] = test system: Puccinia recondita f. Sp. Tritici; assay: Fungicidal activity against Puccinia recondita f. sp. tritici / wheat / leaf disc preventative (brown rust); format: in vivo; conditions: foliar, 200 ppm in the applied formulation, wheat leaf segments cv. Kanzler, preventative (inoculated 1 day after application), compared to untreated, read-out: disease control
In short: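 Segments of wheat cv. Kanzler on water agar were sprayed with compound and inoculated with spores 1 day later. They were kept at 19 °C, 75% rh and 12 h light/12 h dark. Percent disease control versus untreated was scored 7–9 days after application; compounds were tested at 200 ppm.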

[2] = test system: Glomerella lagenarium (Colletotrichum lagenarium); assay: Fungicidal activity against Glomerella lagenarium (Colletotrichum lagenarium) liquid culture / cucumber / preventative (anthracnose); format: cell-based; conditions: Colletotrichum orbiculare; 20 ppm in the applied formulation; liquid culture (PDB), inhibition of growth measured photometrically 3 to 4 days after application; compared to untreated; read-out: disease control
In short: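 Conidia from cryogenic storage mixed into potato dextrose broth and added to compound in DMSO in microtiter plates. Incubated at 24° C.; growth inhibition read photometrically 3 to 4 days after application. Disease control expressed relative to untreated control, with compound at 20 ppm in the applied formulation.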

[3] = test system: Phakopsora pachyrhizi; assay: Fungicidal activity against Phakopsora pachyrhizi / soybean / leaf disc preventative (Asian soybean rust); format: in vivo; conditions: foliar, 200 ppm in the applied formulation, soybean leaf disks, compared to untreated, read-out: disease control
Procedure: Leaf disks or leaf segments of various plant species are cut from plants grown in a greenhouse. The cut leaf disks or segments are placed in multiwell plates (24-well format) onto water agar. The leaf disks are sprayed with a test solution before (preventative) or after (curative) inoculation. Compounds to be tested are prepared as DMSO solutions (max. 10 mg/mL) which are diluted to the appropriate concentration with 0.025% Tween20 just before spraying. The inoculated leaf disks or segments are incubated under defined conditions (temperature, relative humidity, light, etc.) according to the respective test system. A single evaluation of disease level is carried out 3 to 14 days after inoculation, depending on the pathosystem. Percent disease control relative to the untreated check leaf disks or segments is then calculated. Soybean leaf disks are placed on water agar in multiwell plates (24-well format) and sprayed with the formulated test compound diluted in water. One day after application leaf discs are inoculated by spraying a spore suspension on the lower leaf surface. After an incubation period in a climate cabinet of 24-36 hours in darkness at 20° C. and 75% rh leaf disc are kept at 20° C. with 12 h light/day and 75% rh. The activity of a compound is assessed as percent disease control compared to untreated when an appropriate level of disease damage appears in untreated check leaf disks (12 to 14 days after application). The following compounds at 200 ppm in the applied formulation give at least 80% disease control in this test when compared to untreated control leaf disks under the same conditions, which show extensive disease development.

[4] = test system: Puccinia recondita f. Sp. Tritici; assay: Fungicidal activity against Puccinia recondita f. sp. tritici / wheat / leaf disc curative (brown rust); format: in vivo; conditions: foliar, 24 h, 200 ppm in the applied formulation, wheat leaf segments cv. Kanzler, curative (applied 1 day after inoculation), compared to untreated, read-out: disease control
In short: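 Wheat leaf segments (cv. Kanzler) on agar were inoculated with brown rust spores, kept dark at 19 °C and 75% RH, then sprayed 1 day later with compound (DMSO stock diluted in 0.025% Tween20). Under 12 h light/12 h dark at 19 °C, percent disease control versus untreated was scored 6–8 days after application; 200 ppm applied.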

Row | SMILES | melting point [°C] | pest or weed control at 200 ppm [1] [%] | inhibition of growth at 20 ppm [2] [%] | pest or weed control at 200 ppm [3] [%] | pest or weed control at 200 ppm [4] [%]
1 | CCOC(=O)c1cnn(Cc2cc(-c3noc(C(F)(F)F)n3)cs2)c1 [Compound 1.26, ethyl 1-[[4-[5-(trifluoromethyl)-1,2,4-oxadiazol-3-yl]-2-thienyl]methyl]pyrazole-4-carboxylate] | 119 to 123 | ≥ 80 | ≥ 80 | – | –
2 | CNC(=O)c1cnn(Cc2ccc(-c3noc(C(F)(F)F)n3)s2)c1 [Compound 1.38, N-methyl-1-[[5-[5-(trifluoromethyl)-1,2,4-oxadiazol-3-yl]-2-thienyl]methyl]pyrazole-4-carboxamide] | 150.8 to 155.7 | ≥ 80 | ≥ 80 | ≥ 80 | ≥ 80
3 | CCOC(=O)c1ccnn1Cc1ccc(-c2noc(C(F)(F)F)n2)s1 [Compound 1.45, ethyl 2-[[5-[5-(trifluoromethyl)-1,2,4-oxadiazol-3-yl]-2-thienyl]methyl]pyrazole-3-carboxylate] | – | ≥ 80 | ≥ 80 | ≥ 80 | ≥ 80
4 | CCCOC(=O)c1ccnn1Cc1ccc(-c2noc(C(F)(F)F)n2)s1 [Compound 1.47, propyl 2-[[5-[5-(trifluoromethyl)-1,2,4-oxadiazol-3-yl]-2-thienyl]methyl]pyrazole-3-carboxylate] | – | ≥ 80 | ≥ 80 | ≥ 80 | ≥ 80
5 | CN(C)C(=O)c1ncnn1Cc1ccc(-c2noc(C(F)(F)F)n2)s1 [Compound 1.50, N,N-dimethyl-2-[[5-[5-(trifluoromethyl)-1,2,4-oxadiazol-3-yl]-2-thienyl]methyl]-1,2,4-triazole-3-carboxamide] | – | ≥ 80 | ≥ 80 | ≥ 80 | ≥ 80
6 | COC(=O)c1ccn(Cc2ccc(-c3noc(C(F)(F)F)n3)s2)n1 [Compound 1.53, methyl 1-[[5-[5-(trifluoromethyl)-1,2,4-oxadiazol-3-yl]-2-thienyl]methyl]pyrazole-3-carboxylate] | – | ≥ 80 | ≥ 80 | ≥ 80 | ≥ 80
7 | COC(=O)c1ccnn1Cc1ccc(-c2noc(C(F)(F)F)n2)s1 [Compound 1.54, methyl 2-[[5-[5-(trifluoromethyl)-1,2,4-oxadiazol-3-yl]-2-thienyl]methyl]pyrazole-3-carboxylate] | – | ≥ 80 | ≥ 80 | ≥ 80 | ≥ 80
8 | COC(=O)c1ncnn1Cc1ccc(-c2noc(C(F)(F)F)n2)s1 [Compound 1.55, methyl 2-[[5-[5-(trifluoromethyl)-1,2,4-oxadiazol-3-yl]-2-thienyl]methyl]-1,2,4-triazole-3-carboxylate] | – | ≥ 80 | ≥ 80 | ≥ 80 | ≥ 80
9 | O=C(O)c1ccnn1Cc1ccc(-c2noc(C(F)(F)F)n2)s1 [Compound 1.64, 2-[[5-[5-(trifluoromethyl)-1,2,4-oxadiazol-3-yl]-2-thienyl]methyl]pyrazole-3-carboxylic acid] | 145 to 165 | ≥ 80 | ≥ 80 | – | ≥ 80

Further lines, with some results ahead:

Row | melting point [°C] | SMILES | pest or weed control at 200 ppm [1] [%] | inhibition of growth at 20 ppm [2] [%] | pest or weed control at 200 ppm [3] [%] | pest or weed control at 200 ppm [4] [%]
10 | 113 to 116 | CN(C)c1ncn(Cc2ccc(-c3noc(C(F)(F)F)n3)s2)n1 [Compound 1.4, N,N-dimethyl-1-[[5-[5-(trifluoromethyl)-1,2,4-oxadiazol-3-yl]-2-thienyl]methyl]-1,2,4-triazol-3-amine] | ≥ 80 | ≥ 80 | ≥ 80 | ≥ 80
11 | 76 to 78 | CC(c1ccc(-c2noc(C(F)(F)F)n2)s1)n1cc(C(=O)N2CCC2)cn1 (stereo not drawn) [Compound 1.35, azetidin-1-yl-[1-[1-[5-[5-(trifluoromethyl)-1,2,4-oxadiazol-3-yl]-2-thienyl]ethyl]pyrazol-4-yl]methanone] | ≥ 80 | ≥ 80 | ≥ 80 | ≥ 80
12 | 182 to 185 | O=C(O)c1cnn(Cc2ccc(-c3noc(C(F)(F)F)n3)s2)c1 [Compound 1.36, 1-[[5-[5-(trifluoromethyl)-1,2,4-oxadiazol-3-yl]-2-thienyl]methyl]pyrazole-4-carboxylic acid] | ≥ 80 | ≥ 80 | – | ≥ 80
13 | 133 to 143 | CC(c1ccc(-c2noc(C(F)(F)F)n2)s1)n1cc(C(=O)O)cn1 (stereo not drawn) [Compound 1.37, 1-[1-[5-[5-(trifluoromethyl)-1,2,4-oxadiazol-3-yl]-2-thienyl]ethyl]pyrazole-4-carboxylic acid] | ≥ 80 | ≥ 80 | – | ≥ 80
14 | 135.3 to 137.9 | COCCNC(=O)c1cnn(Cc2ccc(-c3noc(C(F)(F)F)n3)s2)c1 [Compound 1.39, N-(2-methoxyethyl)-1-[[5-[5-(trifluoromethyl)-1,2,4-oxadiazol-3-yl]-2-thienyl]methyl]pyrazole-4-carboxamide] | ≥ 80 | ≥ 80 | ≥ 80 | ≥ 80
15 | 136 to 140 | CCOC(=O)c1ncn(Cc2ccc(-c3noc(C(F)(F)F)n3)s2)n1 [Compound 1.40, ethyl 1-[[5-[5-(trifluoromethyl)-1,2,4-oxadiazol-3-yl]-2-thienyl]methyl]-1,2,4-triazole-3-carboxylate] | ≥ 80 | ≥ 80 | ≥ 80 | ≥ 80
16 | 120 to 124 | CCOC(=O)c1ccn(Cc2ccc(-c3noc(C(F)(F)F)n3)s2)n1 [Compound 1.42, ethyl 1-[[5-[5-(trifluoromethyl)-1,2,4-oxadiazol-3-yl]-2-thienyl]methyl]pyrazole-3-carboxylate] | ≥ 80 | ≥ 80 | ≥ 80 | ≥ 80
17 | 140 to 160 | CCCOC(=O)c1ncn(Cc2ccc(-c3noc(C(F)(F)F)n3)s2)n1 [Compound 1.43, propyl 1-[[5-[5-(trifluoromethyl)-1,2,4-oxadiazol-3-yl]-2-thienyl]methyl]-1,2,4-triazole-3-carboxylate] | ≥ 80 | ≥ 80 | ≥ 80 | ≥ 80
18 | 88 to 94 | CCCOC(=O)c1ccn(Cc2ccc(-c3noc(C(F)(F)F)n3)s2)n1 [Compound 1.46, propyl 1-[[5-[5-(trifluoromethyl)-1,2,4-oxadiazol-3-yl]-2-thienyl]methyl]pyrazole-3-carboxylate] | ≥ 80 | ≥ 80 | ≥ 80 | ≥ 80
19 | 132 to 140 | CNC(=O)c1ncnn1Cc1ccc(-c2noc(C(F)(F)F)n2)s1 [Compound 1.48, N-methyl-2-[[5-[5-(trifluoromethyl)-1,2,4-oxadiazol-3-yl]-2-thienyl]methyl]-1,2,4-triazole-3-carboxamide] | ≥ 80 | ≥ 80 | ≥ 80 | ≥ 80
20 | 210 to 220 | O=C(O)c1ncn(Cc2ccc(-c3noc(C(F)(F)F)n3)s2)n1 [Compound 1.63, 1-[[5-[5-(trifluoromethyl)-1,2,4-oxadiazol-3-yl]-2-thienyl]methyl]-1,2,4-triazole-3-carboxylic acid] | ≥ 80 | – | – | ≥ 80
